According to patent US12351628B2, “Modified membrane spanning proteins and methods for the preparation and use thereof” (priority 2014, dated 2025):
≈ marks a conversion by molar mass, not a printed value. Read-outs that look alike come from different tables or passages of the source.

Test system: E. coli strains (e.g. BL21 or DH10beta)
Test: Growth of E. coli on LB medium with varying antibiotic concentrations (MIC), liquid and agar plates
Format: cell-based
Settings: for Antibiotic concentration to which resistance is conferred: E. coli transformed with isolated mutated GPR55 clones; for MIC: Escherichia coli
Method: The construct library containing modified genes is then used to transform E. coli strains (e.g. BL21 or DH10beta). Growth is tested on LB medium with varying concentrations of kanamycin (MIC for untransformed cells is approximately 10 mg/L), both in liquid and agar plates.

[1] = E. coli containing a plasmid encoding wild type human GPR55
[2] = read-out: Apparent MIC, E. coli expressing certain constructs containing wild type rat NTSR1 (aa 43-424)

| SMILES | Antibiotic concentration to which resistance is conferred | MIC [1] | MIC [2] | MIC (untransformed E. coli cells, LB medium) |
| --- | --- | --- | --- | --- |
| CC1(C)S[C@@H]2[C@H](NC(=O)C(C(=O)O)c3ccccc3)C(=O)N2[C@H]1C(=O)O (stereo partly shown) [carbenicillin] | > 80 mg/L | ~40 µg/mL (≈ 106 µM) | > 75 µg/mL |  |
| NC[C@H]1O[C@H](O[C@H]2[C@H](O)[C@@H](O[C@H]3O[C@H](CO)[C@@H](O)[C@H](N)[C@H]3O)[C@H](N)C[C@@H]2N)[C@H](O)[C@@H](O)[C@@H]1O [kanamycin] | > 50 mg/L | ~25 µg/mL (≈ 51.6 µM) | > 50 µg/mL | ~10 µg/mL (≈ 20.6 µM) |
